Data: article PMC7265341, “Quantifying CDK inhibitor selectivity in live cells” (Nature Communications, 2020)
Read-outs that look alike come from different tables or passages of the source.

Columns and labels:
CDK11A/Cyclin L2 = target: T1, CDK11A/Cyclin L2 (Homo sapiens, UniProt Q9UQ88); assay: NanoBRET live-cell target engagement, CDK11A-NanoLuc/Cyclin L2 in HEK-293; format: binding; settings: CDK11a/L2, 10µM
T1 sequence (Q9UQ88 1-783): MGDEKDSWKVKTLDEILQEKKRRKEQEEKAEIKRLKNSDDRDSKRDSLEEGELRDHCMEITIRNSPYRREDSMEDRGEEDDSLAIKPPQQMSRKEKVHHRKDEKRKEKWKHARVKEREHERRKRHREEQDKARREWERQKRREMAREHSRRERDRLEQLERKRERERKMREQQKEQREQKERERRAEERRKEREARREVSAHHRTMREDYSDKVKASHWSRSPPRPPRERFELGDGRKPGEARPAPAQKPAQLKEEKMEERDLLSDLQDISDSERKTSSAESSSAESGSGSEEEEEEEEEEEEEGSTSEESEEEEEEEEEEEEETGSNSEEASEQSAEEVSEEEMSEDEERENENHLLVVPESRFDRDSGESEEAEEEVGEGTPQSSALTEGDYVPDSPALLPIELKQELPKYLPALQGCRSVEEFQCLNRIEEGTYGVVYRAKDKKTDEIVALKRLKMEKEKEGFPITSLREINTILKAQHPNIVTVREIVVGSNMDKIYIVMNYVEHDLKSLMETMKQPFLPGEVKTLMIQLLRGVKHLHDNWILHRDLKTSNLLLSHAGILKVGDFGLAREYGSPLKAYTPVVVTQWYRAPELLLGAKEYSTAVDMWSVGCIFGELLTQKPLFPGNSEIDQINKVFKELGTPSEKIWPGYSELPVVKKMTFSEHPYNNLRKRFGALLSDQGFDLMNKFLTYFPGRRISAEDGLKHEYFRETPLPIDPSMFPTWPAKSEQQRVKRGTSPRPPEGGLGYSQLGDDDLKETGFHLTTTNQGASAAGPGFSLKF

CDK8/Cyclin C = CDK8/Cyclin C (Homo sapiens, UniProt P49336); assay: NanoBRET live-cell target engagement, NanoLuc-CDK8/Cyclin C in HEK-293; format: binding; settings: CDK8/C
CDK20/Cyclin H = CDK20/Cyclin H (Homo sapiens, UniProt Q8IZL9); assay: NanoBRET live-cell target engagement, NanoLuc-CDK20/Cyclin H in HEK-293; format: binding; settings: CDK20/H, 10µM
CDK10/Cyclin L2 = CDK10/Cyclin L2 (Homo sapiens, UniProt Q15131); assay: NanoBRET live-cell target engagement, CDK10-NanoLuc/Cyclin L2 in HEK-293; settings: 10µM
CDK4/Cyclin D1 = CDK4/Cyclin D1 (Homo sapiens, UniProt P11802); assay: NanoBRET live-cell target engagement, NanoLuc-CDK4/Cyclin D1 in HEK-293; format: binding; settings: CDK4/D1, 10µM
CDK7 = CDK7 (Homo sapiens, UniProt P50613); assay: NanoBRET live-cell target engagement, NanoLuc-CDK7 in HEK-293; format: binding; settings: CDK7, 10µM
CDK18/Cyclin Y = CDK18/Cyclin Y (Homo sapiens, UniProt Q07002); assay: NanoBRET live-cell target engagement, CDK18-NanoLuc/Cyclin Y in HEK-293; format: binding; settings: CDK18/Y
CDK17/Cyclin Y = CDK17/Cyclin Y (Homo sapiens, UniProt Q00537); assay: NanoBRET live-cell target engagement, CDK17-NanoLuc/Cyclin Y in HEK-293; format: binding; settings: CDK17/Y, 10µM
CDK14/Cyclin Y = CDK14/Cyclin Y (Homo sapiens, UniProt O94921); assay: NanoBRET live-cell target engagement, CDK14-NanoLuc/Cyclin Y in HEK-293; format: binding; settings: CDK14/Y, 10µM
CDK11B/Cyclin L2 = CDK11B/Cyclin L2 (Homo sapiens, UniProt P21127); assay: NanoBRET live-cell target engagement, CDK11B-NanoLuc/Cyclin L2 in HEK-293; format: binding; settings: CDK11b/L2, 10µM
CDK15/Cyclin Y = CDK15/Cyclin Y (Homo sapiens, UniProt Q96Q40); assay: NanoBRET live-cell target engagement, NanoLuc-CDK15/Cyclin Y in HEK-293; format: binding; settings: CDK15/Y, 10µM
CDK6/Cyclin D1 = CDK6/Cyclin D1 (Homo sapiens, UniProt Q00534); assay: NanoBRET live-cell target engagement, NanoLuc-CDK6/Cyclin D1 in HEK-293; format: binding; settings: CDK6/D1, 10µM
CDK1/Cyclin E1 = CDK1/Cyclin E1 (Homo sapiens, UniProt P06493); assay: NanoBRET live-cell target engagement, CDK1-NanoLuc/Cyclin E1 in HEK-293; format: binding; settings: CDK1/E1, 10µM
CDK5/CDK5R1 = CDK5/CDK5R1 (Homo sapiens, UniProt Q00535); assay: NanoBRET live-cell target engagement, CDK5-NanoLuc/CDK5R1 in HEK-293; format: binding; settings: CDK5/CDK5R1, 10µM
CDK16/Cyclin Y = CDK16/Cyclin Y (Homo sapiens, UniProt Q00536); assay: NanoBRET live-cell target engagement, CDK16-NanoLuc/Cyclin Y in HEK-293; format: binding; settings: CDK16/Y, 10µM
CDK19/Cyclin C = CDK19/Cyclin C (Homo sapiens, UniProt Q9BWU1); assay: NanoBRET live-cell target engagement, NanoLuc-CDK19/Cyclin C in HEK-293
[1] = average of replicates, read-out: Inhibition at 10µM (%) Average
[2] = read-out: Inhibition at 10µM (%) Replicate 1
[3] = read-out: Inhibition at 10µM (%) Replicate 2
[4] = n=3 average ± SEM, n=2 average to 2 significant figures, read-out: IC50 (nM) Average*
[5] = read-out: IC50 (nM) Replicate 1
[6] = read-out: IC50 (nM) Replicate 2

Sequence of CDK15/Cyclin Y (Q96Q40 whole entry): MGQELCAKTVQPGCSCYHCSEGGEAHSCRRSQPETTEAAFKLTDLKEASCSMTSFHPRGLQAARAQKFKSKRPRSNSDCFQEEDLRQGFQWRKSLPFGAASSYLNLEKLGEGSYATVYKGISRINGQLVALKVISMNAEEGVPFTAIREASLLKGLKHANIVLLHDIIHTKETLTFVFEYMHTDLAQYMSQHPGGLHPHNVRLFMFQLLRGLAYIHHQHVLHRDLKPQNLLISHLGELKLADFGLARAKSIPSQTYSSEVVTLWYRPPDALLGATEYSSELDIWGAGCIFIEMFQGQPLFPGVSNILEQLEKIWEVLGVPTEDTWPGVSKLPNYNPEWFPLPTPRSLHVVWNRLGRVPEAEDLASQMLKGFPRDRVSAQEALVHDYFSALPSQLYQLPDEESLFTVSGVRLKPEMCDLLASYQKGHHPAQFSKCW
Sequence of CDK15/Cyclin Y (Q8ND76 whole entry partner): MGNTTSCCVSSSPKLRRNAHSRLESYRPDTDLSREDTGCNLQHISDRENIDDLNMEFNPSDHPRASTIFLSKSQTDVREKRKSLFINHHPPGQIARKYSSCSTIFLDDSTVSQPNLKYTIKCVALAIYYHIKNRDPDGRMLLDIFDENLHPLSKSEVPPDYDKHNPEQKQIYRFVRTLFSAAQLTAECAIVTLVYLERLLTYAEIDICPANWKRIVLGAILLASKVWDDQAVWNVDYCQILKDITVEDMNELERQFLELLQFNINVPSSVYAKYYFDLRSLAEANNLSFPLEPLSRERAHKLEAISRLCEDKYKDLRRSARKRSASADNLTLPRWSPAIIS
Sequence of CDK7 (P50613 whole entry): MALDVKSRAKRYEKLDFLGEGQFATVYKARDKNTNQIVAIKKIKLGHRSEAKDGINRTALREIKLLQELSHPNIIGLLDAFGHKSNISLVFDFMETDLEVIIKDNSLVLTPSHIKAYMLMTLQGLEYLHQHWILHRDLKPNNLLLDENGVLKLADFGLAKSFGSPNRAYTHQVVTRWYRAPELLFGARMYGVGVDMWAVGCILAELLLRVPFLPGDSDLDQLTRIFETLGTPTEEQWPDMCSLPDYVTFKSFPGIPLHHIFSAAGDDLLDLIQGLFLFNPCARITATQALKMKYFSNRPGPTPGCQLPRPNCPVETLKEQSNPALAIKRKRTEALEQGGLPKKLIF
Sequence of CDK10/Cyclin L2 (Q15131 whole entry): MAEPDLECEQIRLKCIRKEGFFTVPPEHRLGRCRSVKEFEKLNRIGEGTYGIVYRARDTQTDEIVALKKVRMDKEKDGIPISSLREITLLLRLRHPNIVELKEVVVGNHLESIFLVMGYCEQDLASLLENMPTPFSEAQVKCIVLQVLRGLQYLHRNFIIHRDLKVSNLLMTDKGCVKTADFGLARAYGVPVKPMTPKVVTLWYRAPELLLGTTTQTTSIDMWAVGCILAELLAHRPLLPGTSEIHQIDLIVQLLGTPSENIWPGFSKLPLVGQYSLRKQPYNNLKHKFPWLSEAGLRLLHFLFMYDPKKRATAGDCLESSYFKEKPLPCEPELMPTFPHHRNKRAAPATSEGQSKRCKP
Sequence of CDK4/Cyclin D1 (P11802 whole entry): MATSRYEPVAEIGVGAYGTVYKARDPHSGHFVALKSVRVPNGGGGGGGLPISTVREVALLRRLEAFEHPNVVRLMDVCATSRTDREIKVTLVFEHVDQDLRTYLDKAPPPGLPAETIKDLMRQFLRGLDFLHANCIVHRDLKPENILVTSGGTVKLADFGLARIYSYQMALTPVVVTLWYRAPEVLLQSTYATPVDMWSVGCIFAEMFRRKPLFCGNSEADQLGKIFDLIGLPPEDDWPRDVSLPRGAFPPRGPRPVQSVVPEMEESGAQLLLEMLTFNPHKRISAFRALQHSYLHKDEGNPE
Sequence of CDK4/Cyclin D1 (P24385 whole entry partner): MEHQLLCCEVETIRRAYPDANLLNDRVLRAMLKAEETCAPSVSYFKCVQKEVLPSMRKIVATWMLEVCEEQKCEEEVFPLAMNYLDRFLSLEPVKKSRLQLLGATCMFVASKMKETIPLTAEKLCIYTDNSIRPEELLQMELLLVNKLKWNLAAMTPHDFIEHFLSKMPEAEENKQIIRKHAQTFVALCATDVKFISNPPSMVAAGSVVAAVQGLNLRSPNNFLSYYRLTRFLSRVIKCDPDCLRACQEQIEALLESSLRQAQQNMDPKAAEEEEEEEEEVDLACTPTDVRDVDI
Sequence of CDK8/Cyclin C (P49336 whole entry): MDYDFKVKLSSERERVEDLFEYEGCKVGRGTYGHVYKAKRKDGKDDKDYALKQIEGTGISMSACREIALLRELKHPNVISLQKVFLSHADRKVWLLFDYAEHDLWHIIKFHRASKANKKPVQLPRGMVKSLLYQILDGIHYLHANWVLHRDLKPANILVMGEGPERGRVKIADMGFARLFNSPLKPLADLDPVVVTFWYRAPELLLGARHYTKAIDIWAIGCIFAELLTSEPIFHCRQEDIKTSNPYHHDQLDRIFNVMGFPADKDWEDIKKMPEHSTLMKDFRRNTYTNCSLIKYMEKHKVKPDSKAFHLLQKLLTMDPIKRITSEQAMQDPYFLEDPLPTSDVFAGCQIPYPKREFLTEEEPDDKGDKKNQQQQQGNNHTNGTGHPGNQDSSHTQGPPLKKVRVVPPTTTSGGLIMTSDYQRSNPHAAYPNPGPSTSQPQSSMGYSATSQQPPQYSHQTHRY
Sequence of CDK8/Cyclin C (P24863 whole entry partner): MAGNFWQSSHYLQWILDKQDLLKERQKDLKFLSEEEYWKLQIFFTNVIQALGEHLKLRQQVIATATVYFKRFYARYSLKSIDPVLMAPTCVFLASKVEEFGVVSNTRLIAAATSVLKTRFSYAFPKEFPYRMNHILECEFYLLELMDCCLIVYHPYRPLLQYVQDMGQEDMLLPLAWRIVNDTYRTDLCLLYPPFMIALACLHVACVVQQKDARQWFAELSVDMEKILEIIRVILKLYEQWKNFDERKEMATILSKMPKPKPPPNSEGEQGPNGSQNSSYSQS
Sequence of CDK19/Cyclin C (Q9BWU1 whole entry): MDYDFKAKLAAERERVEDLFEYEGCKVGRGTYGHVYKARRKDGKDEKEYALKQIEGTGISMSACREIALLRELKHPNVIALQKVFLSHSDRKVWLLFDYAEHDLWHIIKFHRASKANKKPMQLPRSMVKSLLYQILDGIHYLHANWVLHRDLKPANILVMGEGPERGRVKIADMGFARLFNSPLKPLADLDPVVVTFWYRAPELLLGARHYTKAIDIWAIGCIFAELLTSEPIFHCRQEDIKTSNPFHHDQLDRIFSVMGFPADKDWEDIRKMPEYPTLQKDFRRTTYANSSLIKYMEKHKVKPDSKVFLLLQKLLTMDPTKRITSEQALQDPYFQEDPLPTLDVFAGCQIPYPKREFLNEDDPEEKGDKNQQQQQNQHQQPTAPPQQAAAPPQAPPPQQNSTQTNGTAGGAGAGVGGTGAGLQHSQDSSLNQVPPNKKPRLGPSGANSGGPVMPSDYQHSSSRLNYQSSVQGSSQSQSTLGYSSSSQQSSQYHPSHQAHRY
Sequence of CDK19/Cyclin C (P24863 whole entry partner): as the sequence (P24863 whole entry partner) above
Sequence of CDK1/Cyclin E1 (P06493 whole entry): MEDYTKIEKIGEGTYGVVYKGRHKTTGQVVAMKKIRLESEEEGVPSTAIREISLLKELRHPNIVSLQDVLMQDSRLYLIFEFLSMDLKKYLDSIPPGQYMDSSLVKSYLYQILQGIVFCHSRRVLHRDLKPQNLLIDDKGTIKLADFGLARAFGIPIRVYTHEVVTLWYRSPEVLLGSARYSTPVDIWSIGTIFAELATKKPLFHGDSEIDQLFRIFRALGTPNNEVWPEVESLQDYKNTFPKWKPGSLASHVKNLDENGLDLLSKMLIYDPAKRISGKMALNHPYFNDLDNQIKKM
Sequence of CDK1/Cyclin E1 (P24864 whole entry partner): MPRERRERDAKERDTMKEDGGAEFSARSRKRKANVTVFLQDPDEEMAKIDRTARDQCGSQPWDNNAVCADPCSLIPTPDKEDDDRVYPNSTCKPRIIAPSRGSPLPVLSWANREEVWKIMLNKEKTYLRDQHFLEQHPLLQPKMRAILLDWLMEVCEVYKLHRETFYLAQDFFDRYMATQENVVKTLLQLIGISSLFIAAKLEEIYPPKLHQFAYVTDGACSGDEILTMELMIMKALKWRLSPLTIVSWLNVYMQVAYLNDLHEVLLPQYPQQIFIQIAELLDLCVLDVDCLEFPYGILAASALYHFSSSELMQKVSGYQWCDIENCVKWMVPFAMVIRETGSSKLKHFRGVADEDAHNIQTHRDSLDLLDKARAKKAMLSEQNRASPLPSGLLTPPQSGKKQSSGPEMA
Sequence of CDK17/Cyclin Y (Q00537 whole entry): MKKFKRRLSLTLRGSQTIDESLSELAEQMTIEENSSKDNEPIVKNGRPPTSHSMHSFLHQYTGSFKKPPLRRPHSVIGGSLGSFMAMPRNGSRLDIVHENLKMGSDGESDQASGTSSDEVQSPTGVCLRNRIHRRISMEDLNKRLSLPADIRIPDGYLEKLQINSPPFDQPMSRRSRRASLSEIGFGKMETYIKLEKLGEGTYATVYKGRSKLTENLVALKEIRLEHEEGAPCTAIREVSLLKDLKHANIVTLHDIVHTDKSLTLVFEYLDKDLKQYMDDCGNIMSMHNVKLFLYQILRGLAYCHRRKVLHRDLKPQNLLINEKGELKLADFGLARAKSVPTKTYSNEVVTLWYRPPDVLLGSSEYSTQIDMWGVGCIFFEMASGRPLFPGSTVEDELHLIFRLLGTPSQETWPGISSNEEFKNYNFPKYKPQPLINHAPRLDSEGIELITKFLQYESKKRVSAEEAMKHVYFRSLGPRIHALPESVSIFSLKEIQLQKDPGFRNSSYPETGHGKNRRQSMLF
Sequence of CDK17/Cyclin Y (Q8ND76 whole entry partner): as the sequence (Q8ND76 whole entry partner) above

Cc1ncc(-c2ccnc(Nc3ccc(S(C)(=O)=O)cc3)n2)n1C(C)C [AZD5438]
inhibition at 10 µM (CDK11A/Cyclin L2; [1]): 68.9% | inhibition at 10 µM (CDK11A/Cyclin L2; [2]): 67.5% | inhibition at 10 µM (CDK11A/Cyclin L2; [3]): 70.3% | inhibition at 10 µM (CDK8/Cyclin C; [1]): 90.5% | inhibition at 10 µM (CDK8/Cyclin C; [2]): 94.1% | IC50 (CDK8/Cyclin C; [4]): 200 nM | IC50 (CDK8/Cyclin C; [5]): 330 nM | IC50 (CDK8/Cyclin C; [6]): 79 nM | inhibition at 10 µM (CDK20/Cyclin H; [2]): 22.8% | inhibition at 10 µM (CDK20/Cyclin H; [3]): 25.6% | inhibition at 10 µM (CDK10/Cyclin L2; read-out: Inhibition at 10µM (%) Average, CDK10/L2, average of replicates): 64.8% | inhibition at 10 µM (CDK10/Cyclin L2; read-out: Inhibition at 10µM (%) Replicate 1, CDK10/L2): 63.3% | inhibition at 10 µM (CDK10/Cyclin L2; read-out: Inhibition at 10µM (%) Replicate 2, CDK10/L2): 66.2% | inhibition at 10 µM (CDK4/Cyclin D1; [1]): 89.9% | inhibition at 10 µM (CDK4/Cyclin D1; [2]): 88.9% | inhibition at 10 µM (CDK4/Cyclin D1; [3]): 90.9% | inhibition at 10 µM (CDK7; [1]): 77.1% | inhibition at 10 µM (CDK7; [2]): 71.7% | inhibition at 10 µM (CDK7; [3]): 82.5% | inhibition at 10 µM (CDK18/Cyclin Y; [1]): 90% | inhibition at 10 µM (CDK18/Cyclin Y; [2]): 84.4% | inhibition at 10 µM (CDK18/Cyclin Y; [3]): 95.5% | IC50 (CDK18/Cyclin Y; [4]): 670 nM | IC50 (CDK18/Cyclin Y; [5]): 566 nM | IC50 (CDK18/Cyclin Y; [6]): 770 nM | inhibition at 10 µM (CDK17/Cyclin Y; [1]): 90.7% | inhibition at 10 µM (CDK17/Cyclin Y; [2]): 91.3% | inhibition at 10 µM (CDK17/Cyclin Y; [3]): 90.1% | inhibition at 10 µM (CDK14/Cyclin Y; [1]): 70.3% | inhibition at 10 µM (CDK14/Cyclin Y; [2]): 69.6% | inhibition at 10 µM (CDK14/Cyclin Y; [3]): 71% | inhibition at 10 µM (CDK11B/Cyclin L2; [1]): 70.1% | inhibition at 10 µM (CDK11B/Cyclin L2; [2]): 70.5% | inhibition at 10 µM (CDK11B/Cyclin L2; [3]): 69.7% | inhibition at 10 µM (CDK15/Cyclin Y; [1]): 72.1% | inhibition at 10 µM (CDK15/Cyclin Y; [2]): 69.4% | inhibition at 10 µM (CDK15/Cyclin Y; [3]): 74.8% | inhibition at 10 µM (CDK6/Cyclin D1; [1]): 91.2% | inhibition at 10 µM (CDK6/Cyclin D1; [2]): 90.8% | inhibition at 10 µM (CDK6/Cyclin D1; [3]): 91.7% | inhibition at 10 µM (CDK1/Cyclin E1; [1]): 78.5% | inhibition at 10 µM (CDK1/Cyclin E1; [2]): 78.7% | inhibition at 10 µM (CDK1/Cyclin E1; [3]): 78.3% | inhibition at 10 µM (CDK5/CDK5R1; [1]): 90.8% | inhibition at 10 µM (CDK5/CDK5R1; [2]): 87.9% | inhibition at 10 µM (CDK5/CDK5R1; [3]): 93.8% | inhibition at 10 µM (CDK16/Cyclin Y; [2]): 90% | inhibition at 10 µM (CDK16/Cyclin Y; [3]): 89.6% | IC50 (CDK19/Cyclin C; IC50 (nM) Average*, CDK19/Y, n=3 average ± SEM, n=2 average to 2 significant figures): 300 nM | IC50 (CDK19/Cyclin C; IC50 (nM) Replicate 1, CDK19/C): 470 nM | IC50 (CDK19/Cyclin C; IC50 (nM) Replicate 2, CDK19/C): 140 nM | inhibition at 10 µM (CDK19/Cyclin C; read-out: Inhibition at 10µM (%) Average, CDK19/C, average of replicates): 92.8% | inhibition at 10 µM (CDK19/Cyclin C; read-out: Inhibition at 10µM (%) Replicate 1, CDK19/C): 90.6% | inhibition at 10 µM (CDK19/Cyclin C; read-out: Inhibition at 10µM (%) Replicate 2, CDK19/C): 95.1%
